Measured values taken from PubChem BioAssay (NCI).
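Compound exposure: 48 hours, 5 concentrations, 96-well plates. At the GI50, growth is halved. TGI marks complete inhibition of growth.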

What was measured:
Assay in all cases: DTP human tumour cell line panel, 48 h
SK-MEL-5 melanoma = test system: SK-MEL-5 melanoma
HT29 colon = test system: HT29 colon
SK-OV-3 ovarian = test system: SK-OV-3 ovarian
MDA-MB-435 = test system: MDA-MB-435
SK-MEL-28 melanoma = test system: SK-MEL-28 melanoma
UO-31 renal = test system: UO-31 renal
TK-10 renal = test system: TK-10 renal
K-562 leukemia = test system: K-562 leukemia
SNB-19 CNS = test system: SNB-19 CNS
UACC-62 melanoma = test system: UACC-62 melanoma

Structure (SMILES)	TGI (SK-MEL-5 melanoma)	TGI (HT29 colon)	TGI (SK-OV-3 ovarian)	TGI (MDA-MB-435)	TGI (SK-MEL-28 melanoma)	TGI (UO-31 renal)	TGI (TK-10 renal)	TGI (K-562 leukemia)	TGI (SNB-19 CNS)	TGI (UACC-62 melanoma)	GI50 (SK-MEL-5 melanoma)	GI50 (HT29 colon)	GI50 (SK-OV-3 ovarian)	GI50 (MDA-MB-435)	GI50 (SK-MEL-28 melanoma)	GI50 (UO-31 renal)	GI50 (TK-10 renal)	GI50 (K-562 leukemia)	GI50 (SNB-19 CNS)	GI50 (UACC-62 melanoma)
CC(=O)Oc1c2c(c3n(c1=O)CCCC3)C(=O)N(c1ccccc1)C2=O	> 100 µM	> 100 µM	> 100 µM	> 100 µM	> 100 µM	> 100 µM	> 100 µM	> 100 µM	> 100 µM	> 100 µM										
C=C(C)COC1CCCCO1 (stereo not given)	> 100 µM	> 100 µM	> 100 µM	> 100 µM	> 100 µM	> 100 µM	> 100 µM	> 100 µM	> 100 µM	> 100 µM										
COc1ccc2c3c([nH]c2c1)CCN(CCCC(=O)c1ccc(F)cc1)C3	26 µM	18.3 µM	36.6 µM	31 µM	29.3 µM	27.5 µM	29.1 µM	44.9 µM	28.2 µM	27.4 µM										
COC(=O)N[C@H](C(=O)O)C(C)O[Si](C)(C)C(C)(C)C (stereo not given in full)	> 100 µM	> 100 µM	> 100 µM	> 100 µM	> 100 µM	> 100 µM	> 100 µM	> 100 µM	> 100 µM	> 100 µM										
Cc1cc(S(=O)(=O)Nc2nnc3cnc4ccccc4n23)c(S)cc1Cl	> 85.9 µM	> 100 µM	> 100 µM	> 100 µM	> 100 µM	> 100 µM	> 100 µM	> 100 µM	> 100 µM	> 100 µM										
NC(CCOCCP(=O)(O)O)C(=O)O (stereo not given)	> 100 µM	> 100 µM	> 100 µM	> 100 µM	> 100 µM	> 100 µM	> 100 µM	> 100 µM	> 100 µM	> 100 µM										
COc1cc(OC)cc(-c2n/c(=C\c3c(O)[nH]c4ccc(OC)cc34)cc3c2=Nc2ccccc2-3)c1	25.2 µM	4.15 µM	53.3 µM	29.3 µM	33.4 µM	> 100 µM	9.86 µM	6.64 µM	27.7 µM	36 µM	12.1 µM	2.06 µM	25.8 µM	4.12 µM	13.5 µM	41.6 µM	3.82 µM	2.65 µM	5.82 µM	18.3 µM
NC1=Nc2cc(Cl)ccc2Sc2nc3ccccc3n21	> 100 µM	> 100 µM	> 100 µM	> 100 µM	> 100 µM	> 100 µM	> 100 µM	> 100 µM	> 100 µM	> 100 µM										
O=C1C(Cl)=C(N(C(=O)c2ccccc2)C(=O)c2ccccc2)C(=O)c2ccccc21	12.4 µM	69.3 µM	> 100 µM	32.4 µM	40.2 µM	15.7 µM	37.8 µM	20.6 µM	> 100 µM	19.8 µM										
CN(C)c1ccc(/C=C(\NC(=O)c2ccccc2)C2=NC(CCC(=O)O)C(=O)O2)cc1 (stereo not given)	> 50 µM	> 50 µM	> 50 µM	> 50 µM	> 50 µM	> 50 µM	> 50 µM	> 50 µM	> 50 µM	> 50 µM										
C[C@@H]1C(=O)C[C@H]2C(C)(C)CCC[C@]2(C)[C@@]1(O)CCc1ccoc1	> 100 µM	> 100 µM	> 100 µM	> 100 µM	> 100 µM	> 100 µM	> 100 µM	> 100 µM	> 100 µM	> 100 µM										
O=C1CC[C@@]2(O)[C@H]3Cc4ccc(-c5ccccc5)c5c4[C@@]2(CCN3CC2CC2)[C@H]1O5	28.6 µM	27.8 µM	54 µM	26.6 µM	> 100 µM	32.2 µM	36.4 µM	63.7 µM	59.6 µM	25.2 µM										
CCOC(=O)c1nc2ccc(C(F)(F)F)cc2nc1Nc1ccc(Cl)c(Cl)c1	> 100 µM	> 100 µM	> 100 µM	> 100 µM	> 100 µM	> 100 µM	> 100 µM	> 100 µM	95.7 µM	> 100 µM										
C/C=C1\CN(C(=O)OC(C)(C)C)C1C(=O)OC(C)(C)C (stereo not given)	> 100 µM	> 100 µM	> 100 µM	> 100 µM	> 100 µM	> 100 µM	> 100 µM	> 100 µM	> 100 µM	> 100 µM										
COC(=O)c1c(C#N)c(N)nc2c1CCC2	> 100 µM	> 100 µM	> 100 µM	> 100 µM	> 100 µM	> 100 µM	> 100 µM	> 100 µM	> 100 µM	> 100 µM										
COC(=O)c1c(O)ccc2[nH]c3c(O)c4ccccc4cc3c12	> 100 µM	> 100 µM	90 µM	70.7 µM	76.4 µM	84.9 µM	> 100 µM	> 100 µM	> 100 µM	> 100 µM										
CCCCCCCCCCCCCCC(O)C[N+](C)(CCO)CCO (stereo not given)	16.9 µM	12.1 µM	30.7 µM	21.3 µM	22.4 µM	17 µM	4.16 µM	> 38.1 µM	3.39 µM	11.1 µM										
O=C(CCC=C(S(=O)(=O)c1ccccc1)S(=O)(=O)c1ccccc1)c1ccccc1	19.8 µM	17.5 µM	> 100 µM	24.3 µM	34.6 µM	18.3 µM	19.3 µM	80.4 µM	28.4 µM	19.7 µM										
Cc1oc2c(c1C)S(=O)(=O)C(C#N)=C(N(C)C)N2	> 100 µM	> 100 µM	> 100 µM	> 100 µM	> 100 µM	> 100 µM	> 100 µM	> 100 µM	> 100 µM	> 100 µM										
CCOC(=O)Nc1ccc2c(c1)c(CCCCCCc1nc3ccccc3c3ccc(NC(=O)OCC)cc13)nc1ccccc12	> 100 µM	> 100 µM	85.1 µM	> 100 µM	> 100 µM	> 100 µM	84.8 µM	> 100 µM	> 100 µM	> 100 µM										
